The target of one assay is α-glucosidase. Put plainly: α-Glucosidase inhibitory activity. The class given is biochemical, rat. Particulars: for IC50: rat small intestine acetone powder enzyme, 4-methylumbelliferyl-α-D-glucopyranoside 0.05 mM, 37° C., 30 minutes; for inhibitory activity of α-glucosidase (in words): rat small intestine enzyme, Chart 2. As to the method: The test method is herein described. First of all, mix the acetone powder of the rat small intestine with the pH7.0. 0.1M phosphate buffer solution (product of […] JAPAN K.K), which is approx. 10 times as much as the volume of the acetone powder, and obtain the enzyme liquid from the centrifuged supernatant. Use the 0.2 mM 4-methyl umbel […]-gluco-pyranoside ([…] JAPAN K.K) as a substrate. After dissolving each sample in the DMSO, prepare the two-fold dilution series with the 4% DMSO containing phosphate buffer solution. The diluted solution (50 μL/well) and buffered substrate (25 μL/well) are mixed in a microplate, and after preheating it at 37° C. for 10 minutes, add the enzyme liquid (25 μL/well) to induce the reaction at 37° C. for 30 minutes (final concentration of enzyme: 1 mg protein mL, final concentration of substrate: 0.05 mM). Then, add the 0.2M Na2CO3 (100 μL/well) to stop the reaction. Measure the fluorescence intensity (excitation wavelength: 366 nm, determined wavelength: […]) using a microplate reader.

For a further assay, the system named is epididymal fat. Briefly: Lipolysis effect, glycerol release of epididymal fat (in vitro). To be noted: rat epididymal fat, 37° C., three hours; extract at 1000 μg/mL; FIG. 8. The class given is cell-based, rats. As to the method:
The test method is herein described. Remove the epididymal fat from male Wister rats, and incubate the fat in each sample solved in Medium 199 (medium culture) at a temperature of 37° C. for three hours. After completing the incubation, remove the fat and measure the amount of glycerol in the medium by using F-kit glycerol (product of Nippon Roche).

The next assay addresses T1, pancreatic lipase (Sus scrofa, UniProt P00591).
T1 construct: purchased SIGMA ADLRICH JAPAN K.K
T1 sequence (P00591 1-450): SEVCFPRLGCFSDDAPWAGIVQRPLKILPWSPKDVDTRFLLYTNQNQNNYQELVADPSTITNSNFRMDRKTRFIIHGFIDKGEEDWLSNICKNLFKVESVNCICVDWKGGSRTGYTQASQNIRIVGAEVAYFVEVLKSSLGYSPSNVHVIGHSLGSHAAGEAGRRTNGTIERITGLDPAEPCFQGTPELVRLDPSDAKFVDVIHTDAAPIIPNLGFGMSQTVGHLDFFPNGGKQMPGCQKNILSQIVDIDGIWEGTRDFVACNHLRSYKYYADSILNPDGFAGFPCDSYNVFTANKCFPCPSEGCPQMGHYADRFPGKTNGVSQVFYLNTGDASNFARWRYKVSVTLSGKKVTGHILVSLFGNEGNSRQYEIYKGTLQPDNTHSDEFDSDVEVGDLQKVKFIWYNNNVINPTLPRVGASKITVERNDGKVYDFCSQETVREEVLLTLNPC
Briefly: Pancreatic lipase inhibitory activity (in vitro). The class given is biochemical. Particulars: swine pancreatic lipase 105.8 units/mL; FIG. 5. As to the method:
The lipase inhibitory activity was analyzed by using a pancreatic lipase (product of […] JAPAN K.K, final concentration 105.8 units/mL) derived from the swine and a lipase kit-s (Dainippon Pharmaceutical Co., Ltd.).

Assay [1] can be described thus: Diet effect on weight gain and body fat accumulation, mice fed sample-mixed food for 13 days. Format: in vivo. Particulars: mice ddY, sample mixed in food; for effect on accumulation of epididymal fat and perinephric fat weight: 13 days, FIG. 2; for effect on the weight gain: free feeding 13 days, extract 0.5/1.0 wt %, caffeine 0.05/0.1 wt %, chlorogenic acid 0.15/0.3 wt %, FIG. 1. As to the method: The weight of each mouse was measured every other day during the feeding period, and the weight of the epididymal fat of each mouse on the last day of the feeding period. There was little difference in intake of the food among the control group (for only normal food given) and individual sample administration groups.

The test system of assay [2] is mouse adipose cell line (3T30L1). Put plainly: Effect on fat accumulation and differentiation of 3T3-L1 adipocytes. Format: cell-based. To be noted: 3T3-L1 after differentiation induction, 6 days with sample; FIG. 6. As to the method:
The test method is herein described. Cultivate the 3T30L1 adipose cell (5×10^4 cells/mL) in DMEM medium (high glucose) including fetal calf serum (10 wt %) for two days. Then, replace the medium with a different type of medium containing insulin ([…]), dexamethasone (0.25 μM) and isobutyl methyl xanthin (0.5 mM) for the differentiation induction. Two days later, replace the medium again with the different medium containing the samples and insulin (1 μg/mL), and cultivate them for six days replacing the medium every other day. After completing the cultivation, analyze the glycerol 3-phosphate dehydrogenase (GPDH) activity which is to be an indicator of the concentration of triglyceride in the cell and adipocyte differentiation.

Assay [3] in a line: Hypotriglyceridemic action in blood of food-deprived mice. To be noted: 24-hour food-deprived mice, single oral dose, blood every hour; FIG. 9. The class given is in vivo. As to the method:
Then the effects on the blood triglyceride level are observed. The test method is herein described. First of all, take a blood sample from the veins of the 24-hour food-deprived mice (ddy. Male, 6-week-old). Half an hour later, orally apply each sample (10 mL./kg) suspended with the gum […] of 5 w/v % to the mice. Then, take a blood sample from the mice every one hour, and measure the blood triglyceride levels. Under the same condition, measure the blood triglyceride levels of the mice as a control, in which only gum […] orally administered.

A short description of assay [4]: Suppressive effect on fatty liver (hepatic triglyceride and total cholesterol). To be noted: mice, oral once a day for two weeks; FIG. 7. Format: in vivo. From the text:
The test method is herein described. Keep the mice (ddY, male, 5-week-old) in the laboratory for one week. Then, divide them into four groups and orally administer the samples suspended in the gum […] %) once a day for two weeks. On the final day of the test, remove the livers from the non-food-derived mice, and measure the amount of liver triglyceride and total cholesterol contained therein by using the test kit of Wako Pure Chemical Industries Ltd. of Japan.

Assay [5] is described as follows: Four-day weight gain test with existing dietetic materials (Chart 1). To be noted: mice, sample mixed in food. Format: in vivo. As to the method: Salacia extract can be obtained by extracting the salacia root with solvent. Evening primrose extract can also be obtained by extracting the evening primrose with solvent. As a test method, as shown in Chart 1, a four-day experiment was conducted with the mice (ddY, male, 5-week-old) to freely eat the food (CE-2, CLEA Japan, Inc.) mixed with the sample as indicated in Chart 1. The weight of each mouse was measured on the first day and on the final day of the experimental period.

Values after ≈ are worked out from the molar mass of the structure shown.

In the case of `O=C(O)[C@]1(O)C[C@@H](O)[C@@H](O)[C@H](O)C1` [Quinic acid, quinic acid], on α-glucosidase, the IC50 (commonly the point on the concentration scale where inhibition reaches its midpoint) was greater than 1000 µg/mL and the “inhibitory activity of α-glucosidase (in words)” value (shortened to “inhibitory activity … (in words)”) is “does not indicate the inhibitory activity”.
As to `O=C(/C=C/c1ccc(O)c(O)c1)O[C@@H]1C[C@](O)(C(=O)O)C[C@@H](O)[C@H]1O` [Chlorogenic acid, chlorogenic acid], in the assay on epididymal fat, the “lipolysis effect (glycerol release)” value is on record as “mild lipolysis effect”. Further, the “pancreatic lipase inhibitory activity” value on pancreatic lipase is recorded as “indicate a pancreatic lipase inhibitory activity”. In assay [1], the “effect on accumulation of epididymal fat and perinephric fat weight” value is reported as “slightly indicates a suppressive effect on the accumulation of the fat”; the “effect on the weight gain” value was “do not have a sufficient suppressive effect on the weight gain”. Moreover, in assay [2], the “effect on the GPDH activity” value is on record as “mild inhibitory effect on the GPDH activity” and the “effect on the fat accumulation (triglyceride accumulation)” value was “mild inhibitory effect on the fat accumulation”. Also, the “inhibitory activity … (in words)” value in the assay with α-glucosidase was “strong inhibitory activity of α-glucosidase”. In assay [3], the “lowering effect on the blood-triglyceride” value was “lowering effect on the blood-triglyceride identical to the effect of synephrine”. In assay [4], the “effect on liver triglyceride” value was “strong effect” and the “liver total cholesterol value” is recorded as “almost the same as the value of the control group”.
`Cn1c(=O)c2c(ncn2C)n(C)c1=O` [Caffeine, caffeine]: on pancreatic lipase, the “pancreatic lipase inhibitory activity” value is given as “indicate a pancreatic lipase inhibitory activity”. Besides, in assay [1], the “effect on accumulation of epididymal fat and perinephric fat weight” value was “slightly indicates a suppressive effect on the accumulation of the fat”; the “effect on the weight gain” value is “do not have a sufficient suppressive effect on the weight gain”. In addition, in assay [2], the “effect on the GPDH activity” value is “mild inhibitory effect on the GPDH activity” and the “effect on the fat accumulation (triglyceride accumulation)” value is “mild inhibitory effect on the fat accumulation”. Further, on α-glucosidase, the “IC50” value is greater than 1000 µg/mL and the “inhibitory activity … (in words)” value is “does not indicate the inhibitory activity”. Also, the “lowering effect on the blood-triglyceride” value in assay [3] is reported as “strong lowering effect on the blood-triglyceride”. In assay [4], the “effect on liver triglyceride” value is listed as “strong effect” and the “liver total cholesterol value” was “almost the same as the value of the control group”.
With `c1cc2c(cc1[C@H]1OC[C@H]3[C@@H]1CO[C@@H]3c1ccc3c(c1)OCO3)OCO2` [Sesamine, sesamine], the “Weight (g) 4th day” value in assay [5] (4th day, average ± standard error, n = 5) was 30.91 ± 1.79 g. In addition, in assay [5] (four days), the “Difference in the weight compared to the control” value is -0.83 g and the “Weight increase” value is listed as 3.55 g.
Take `O=C(O)/C=C/c1ccc(O)c(O)c1` [Coffeic acid]: on α-glucosidase, the “IC50” value was 100 µg/mL (≈ 0.555 mM) and the “inhibitory activity … (in words)” value is reported as “strong inhibitory activity of α-glucosidase”.

These data come from patent US8802164B2 (Oryza Oil & Fat Chemical Co., Ltd., priority 2003, dated 2014).
